Data from article PMC12491641 (Nature Communications, 2025).

Tests used:
Format in all cases: binding
[1] = target: T1, AtD14 (DWARF14) (Arabidopsis thaliana, UniProt Q9SQR3); experiment: intrinsic tryptophan fluorescence Kd
T1 sequence (Q9SQR3 2-266): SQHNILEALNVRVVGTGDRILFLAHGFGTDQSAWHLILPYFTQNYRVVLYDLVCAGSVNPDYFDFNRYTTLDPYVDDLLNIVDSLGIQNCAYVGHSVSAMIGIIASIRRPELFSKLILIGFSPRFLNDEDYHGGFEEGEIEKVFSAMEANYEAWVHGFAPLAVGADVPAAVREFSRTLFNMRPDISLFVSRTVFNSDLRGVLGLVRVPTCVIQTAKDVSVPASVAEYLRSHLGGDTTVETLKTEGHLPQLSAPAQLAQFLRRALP

[2] = target: T2, OsD14 (Oryza sativa, UniProt Q10QA5); experiment: nanoDSF Tm increase
T2 sequence (Q10QA5 1-318): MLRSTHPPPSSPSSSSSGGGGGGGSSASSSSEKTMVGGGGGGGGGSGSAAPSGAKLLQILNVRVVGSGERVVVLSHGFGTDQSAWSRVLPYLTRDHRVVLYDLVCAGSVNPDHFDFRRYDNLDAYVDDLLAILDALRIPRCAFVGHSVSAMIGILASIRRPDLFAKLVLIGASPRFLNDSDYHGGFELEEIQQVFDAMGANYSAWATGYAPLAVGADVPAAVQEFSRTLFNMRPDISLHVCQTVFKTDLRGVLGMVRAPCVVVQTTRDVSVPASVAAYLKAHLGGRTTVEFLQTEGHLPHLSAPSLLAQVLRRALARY

[3] = target: T1, AtD14 (DWARF14); experiment: co-crystal structure

| Structure (SMILES) | Kd [1] | nanoDSF Tm increase; tryptophan fluorescence [2] | Kd [3] |
| --- | --- | --- | --- |
| CC1=CC(O/C=C2/C(=O)OC3c4ccccc4CC23)OC1=O (racemic) [(±)-GR24] | 990 nM |  |  |
| CC(=O)/C=C/C=C(C)/C=C/C1=C(C)CC(O)CC1(C)C (stereo in doubt) [zaxinone] |  | tryptophan fluorescence assays confirmed the direct interaction between OsD14 and zaxinone | 1800 nM |
